According to publication PMC8016998, “Identification of potential therapeutic antimicrobial peptides against Acinetobacter baumannii in a mouse model of pneumonia” (Scientific Reports, 2021):
Converted amounts (≈) assume the structure as drawn. No end group written: not given here.

Columns and labels:
[1] = tested on: Acinetobacter baumannii 19,606; assay type: cell-based; settings: 19,606, 24 h
Procedure: MBC were determined by extending the MIC procedure in sterilized 96-well polypropylene microtiter plates according to the broth microdilution guidelines of the Clinical and Laboratory Standards Institute with some modification[47]. […] In addition, 10 µL was drawn from each well with no visible turbidity onto LB agar plates and incubated for 24 h at 37 °C. The lowest concentration showing no visible growth on agar subculture was used as the MBC value. All experiments were performed in triplicate.

MDRAB strain BF50 = assay type: cell-based, Acinetobacter baumannii; settings: 24 h
Procedure: (§1) All AMPs and TP4 derivatives used in this study were synthesized by Kelowna International Scientific Inc. (Taipei City, Taiwan) with more than 95% purity, and their molecular weights were verified by mass spectrum analysis. MBC were determined by extending the MIC procedure in sterilized 96-well polypropylene microtiter plates according to the broth microdilution guidelines of the Clinical and Laboratory Standards Institute with some modification. Briefly, 5 × 10^5 CFU/mL of bacteria were inoculated in LB medium containing AMPs or antibiotic at final concentrations ranging from 512 to 1 μg/mL (from serial twofold dilutions). After incubation for 24 h at 37 °C, the lowest concentration showing no visible growth was used as the MIC value. In addition, 10 µL was drawn from each well with no visible turbidity onto LB agar plates and incubated for 24 h at 37 °C. The lowest concentration showing no visible growth on agar subculture was used as the MBC value. All experiments were performed in triplicate.

MDRAB strain MO91 = assay type: cell-based, Acinetobacter baumannii; settings: 24 h
Procedure: as §1

[2] = tested on: Acinetobacter baumannii 17,978; assay type: cell-based; settings: 17,978, 24 h;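 also: CLSI broth microdilution in 96-well polypropylene plates, MBC taken as lowest concentration giving no growth when clear wells were subcultured on LB agar for 24 h at 37 °C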

Molecule | MBC [1] | MIC [1] | MBC (MDRAB strain BF50) | MIC (MDRAB strain BF50) | MBC (MDRAB strain MO91) | MIC (MDRAB strain MO91) | MBC [2] | MIC [2]
CC[C@H](C)[C@H](NC(=O)[C@H](CO)NC(=O)[C@H](Cc1ccccc1)NC(=O)[C@H](CC(C)C)NC(=O)CNC(=O)CNC(=O)[C@@H](NC(=O)[C@@H](NC(=O)[C@H](Cc1c[nH]cn1)NC(=O)[C@H](Cc1c[nH]cn1)NC(=O)[C@@H](NC(=O)[C@@H](N)Cc1ccccc1)[C@@H](C)CC)[C@@H](C)CC)[C@@H](C)CC)C(=O)NCC(=O)N[C@@H](CCCCN)C(=O)N[C@H](C(=O)N[C@H](C(=O)N[C@@H](Cc1c[nH]cn1)C(=O)N[C@@H](CCCNC(=N)N)C(=O)N[C@@H](CC(C)C)C(=O)N[C@H](C(=O)N[C@@H](CCCNC(=N)N)C(=O)N[C@@H](CCCNC(=N)N)C(=O)N[C@@H](CCCNC(=N)N)C(=O)N[C@@H](CCCNC(=N)N)C(=O)N[C@@H](CCCNC(=N)N)C(=O)O)[C@@H](C)CC)[C@@H](C)CC)[C@@H](C)CC [A12I/A15I] | 128 µg/mL (≈ 41.8 µM) | 32 µg/mL (≈ 10.4 µM) | 128 µg/mL (≈ 41.8 µM) | 64 µg/mL (≈ 20.9 µM) | 128 µg/mL (≈ 41.8 µM) | 32 µg/mL (≈ 10.4 µM) | 64 µg/mL (≈ 20.9 µM) | 64 µg/mL (≈ 20.9 µM)
AAHHIIGGLFSAGKAIHRLIRRRRR [F1A/I2A] | 16 µg/mL | 16 µg/mL | 32 µg/mL | 16 µg/mL | 32 µg/mL | 32 µg/mL | 32 µg/mL | 32 µg/mL
FIAAIIGGLFSAGKAIHRLIRRRRR [H3A/H4A] | 64 µg/mL | 64 µg/mL | 128 µg/mL | 64 µg/mL | 256 µg/mL | 64 µg/mL | 128 µg/mL | 64 µg/mL
FIHHAAGGLFSAGKAIHRLIRRRRR [I5A/I6A] | 64 µg/mL | 64 µg/mL | 64 µg/mL | 32 µg/mL | 128 µg/mL | 64 µg/mL | 32 µg/mL | 32 µg/mL
FIHHIIGGAASAGKAIHRLIRRRRR [L9A/F10A] | 128 µg/mL | 64 µg/mL | 64 µg/mL | 64 µg/mL | 128 µg/mL | 128 µg/mL | 64 µg/mL | 64 µg/mL
FIHHIIGGLFSAGKAAHRLIRRRRR [Peptide I16A] | 32 µg/mL | 32 µg/mL | 16 µg/mL | 16 µg/mL | 32 µg/mL | 16 µg/mL | 32 µg/mL | 16 µg/mL
FIHHIIGGLFSAGKAEHRLIRRRRR [Peptide I16E] | > 256 µg/mL | > 256 µg/mL | > 256 µg/mL | > 256 µg/mL | > 256 µg/mL | > 256 µg/mL | > 256 µg/mL | > 256 µg/mL
FIHHIIGGLFSAGKAIHRHHRRRRR [L19H/I20H] | 64 µg/mL | 64 µg/mL | 32 µg/mL | 32 µg/mL | 32 µg/mL | 32 µg/mL | 32 µg/mL | 32 µg/mL
FIHHIIGGLFSAGKAIHSLIHRRRR [R18S/R21H] | 32 µg/mL | 32 µg/mL | 64 µg/mL | 16 µg/mL | 32 µg/mL | 32 µg/mL | 32 µg/mL | 16 µg/mL
FIHHIIGGLFSAGKARHRLIRRRRR [Peptide I16R] | 64 µg/mL | 64 µg/mL | 128 µg/mL | 64 µg/mL | 256 µg/mL | 64 µg/mL | 128 µg/mL | 128 µg/mL
FIHHIIGGLFSVGKHIHRLIRRRRR [A12V/A15H] | 32 µg/mL | 16 µg/mL | 128 µg/mL | 16 µg/mL | 256 µg/mL | 16 µg/mL | 32 µg/mL | 16 µg/mL
